Measured values: PMC4471902, “Block of NMDA receptor channels by endogenous neurosteroids: implications for the agonist induced conformational states of the channel vestibule” (Scientific Reports, 2015)
Several values for one entry are separate records, joined by “and”; a condition that tells them apart may be missing. Identical values can stand only once. Counter-ions that a name gives are not always drawn.

Tests used:
[1] = target: T1, GluN1/GluN2B receptors (Rattus norvegicus, UniProt P35439+Q00960); experiment: Whole-cell patch-clamp of GluN1/GluN2B receptor responses in transfected HEK293 cells; format: cell-based
T1 construct: expressed in transfected cells; host or cells: HEK293
Text: Human embryonic kidney (HEK293) cells were transfected with expression vectors containing: GluN1–1a (GenBank accession number U08261)[52]; GluN2B (GenBank accession number M91562); GluN1-4a(F484A), (generous gift from Dr. J. J. Woodward)[53] (Smothers & Woodward, 2009); GluN3A (generous gift from Dr. S. A. Lipton)[54] (GenBank accession number NM_138546); GluN1ΔN with deleted 354 amino acids in the NTD (32 to 386); GluN1ΔC with an introduced stop codon in 838 of the CTD GluN2BΔN) with deleted 354 amino acids in the NTD (32 to 386); GluN2BΔC with an introduced stop codon in 844 of the CTD[55]; GluR0 (GenBank accession number Synechocystis PCC 6803) (generous gift from Dr. M. L. Mayer)[18]; and green fluorescent protein (GFP) (pQBI 25, Takara, Tokyo, Japan) genes, as described previously. The Quick-Change site-directed mutagenesis kit (Agilent Technologies, Santa Clara, CA, USA) was used to generate specific point mutations in the M1/M3 region according to the manufacturer’s instructions using manually designed primers purchased from Sigma. Modified DNA plasmids were transformed into competent XL10-Gold E.coli cells, positive clones were selected, and isolated DNA was sequenced. […] All mutations were verified by DNA sequencing (Macrogen, Seoul, Korea or SeQme, Dobris, Czech Republic). The amino acids are numbered according to the full-length protein, including the signal peptide, with the initiating methionine as 1.
Experiments were performed 24–48 hrs after transfection on cells transfected with GluN1/GluN2B/GFP plasmids. Whole-cell voltage-clamp recordings from HEK293 cells were made with a patch-clamp amplifier (Axopatch 200B; Axon Instruments, Inc., Foster City, CA) after a capacitance and series resistance (<10 MΩ) compensation of 80–90%.
Patch pipettes (3–5 MΩ) were filled with a solution containing (in mM): 120 gluconic acid, 15 CsCl, 10 BAPTA, 10 HEPES, 3 MgCl2, 1 CaCl2, and 2 ATP-Mg salt (pH-adjusted to 7.2 with CsOH). When GluR0 receptor responses were studied, intracellular solution contained (in mM): 120 gluconic acid, 15 KCl, 10 BAPTA, 10 HEPES, 3 MgCl2, 1 CaCl2, and 2 ATP-Mg salt (pH-adjusted to 7.2 with KOH). Extracellular solution (ECS) contained the following (in mM): 160 NaCl, 2.5 KCl, 10 HEPES, 10 glucose, 0.2 EDTA, and 0.7 CaCl2 (pH-adjusted to 7.3 with NaOH). Glycine (10 μM), an NMDAR co-agonist, was present in the control and test solutions. All (PA-S and PA-A) solutions were made from freshly prepared 20 mM PA-S and 5 mM PA-A stock in dimethyl sulfoxide (DMSO). The final dilution to ECS was made at 50 °C and followed by 1 min sonication (SONOREX DIGITEC DT 100/H, BADELIN electronic, Berlin, Germany). The same concentration of DMSO was added to all extracellular solutions. Drug applications were made with a microprocessor-controlled multibarrel fast-perfusion system. Changes in the glutamate-induced current in HEK293 cells transfected by GluN1/GluN2B subunits were used to estimate the rate of solution exchange around the cell. Standard ECS was switched to the ECS diluted by water (50%) during glutamate application. The osmolarity was adjusted by sucrose to match the standard ECS. Glutamate (1 mM), glycine (10 μM) and pH was maintained constant in both solutions. The solution exchange rate was estimated to be τ = 4.3 ± 0.3 ms (n = 6) for lifted cells and τ = 12.0 ± 0.9 ms (n = 6) for the attached cells.
Experiments were performed at room temperature (21–25 °C). Data were collected (low-pass filtered at 2 kHz and sampled at 10 kHz) and analyzed using pClamp 10 (Molecular Devices). Unless otherwise mentioned, error bars represent SEM; statistical comparison of groups was performed using Student’s t-test (p < 0.05 was used to determine the significance).
(§1) The IC50 was determined from a single dose of a steroid using the formula [drawing 1] where I is the relative degree of inhibition and [steroid] is the steroid concentration used. […]

[2] = target: T2, GluN1ΔC/GluN2BΔC (Rattus norvegicus, UniProt P35439+Q00960); experiment: Whole-cell patch-clamp of C-terminal truncated NMDARs in HEK293 cells; format: cell-based
T2 construct: expressed in transfected cells; host or cells: HEK293
Text: Human embryonic kidney (HEK293) cells were transfected with expression vectors containing: GluN1–1a (GenBank accession number U08261)[52]; GluN2B (GenBank accession number M91562); GluN1-4a(F484A), (generous gift from Dr. J. J. Woodward)[53] (Smothers & Woodward, 2009); GluN3A (generous gift from Dr. S. A. Lipton)[54] (GenBank accession number NM_138546); GluN1ΔN with deleted 354 amino acids in the NTD (32 to 386); GluN1ΔC with an introduced stop codon in 838 of the CTD GluN2BΔN) with deleted 354 amino acids in the NTD (32 to 386); GluN2BΔC with an introduced stop codon in 844 of the CTD[55]; GluR0 (GenBank accession number Synechocystis PCC 6803) (generous gift from Dr. M. L. Mayer)[18]; and green fluorescent protein (GFP) (pQBI 25, Takara, Tokyo, Japan) genes, as described previously. The Quick-Change site-directed mutagenesis kit (Agilent Technologies, Santa Clara, CA, USA) was used to generate specific point mutations in the M1/M3 region according to the manufacturer’s instructions using manually designed primers purchased from Sigma. Modified DNA plasmids were transformed into competent XL10-Gold E.coli cells, positive clones were selected, and isolated DNA was sequenced. […]
as §1

[3] = system: non-transfected HEK293 cells; experiment: Membrane capacitance measurement of steroid association with and exit from the membrane; format: cell-based, Human
Text: Membrane capacitance was estimated by examining the integrated capacitive current (sampled at 30 kHz at 10 kHz filter cutoff frequency) evoked by depolarizing or hyperpolarizing voltage pulses from −60 mV to +30 mV for 3 ms delivered at 200 Hz.

[4] = 150 μM PA-S co-applied with 1 mM glutamate, 10 μM glycine, attached HEK293 cells
[5] = lifted HEK293 cells, 150 μM PA-S co-application with glutamate
[6] = lifted HEK293 cells, 150 μM PA-S wash

For `CC(=O)[C@H]1CC[C@H]2[C@@H]3CC[C@@H]4C[C@H](OS(=O)(=O)O)CC[C@]4(C)[C@H]3CC[C@]12C` [PA-S, 20-oxo-5β-pregnan-3α-yl sulfate], the “onset of response to glycine Af” value [1] was 84 ± 5%, the “onset of response to glycine τf” value [1] was 29 ± 3 ms and the “onset of response to glycine τs” value [1] was 280 ± 72 ms. The “onset of inhibition Af” value [1, 4] was 75 ± 3%, the “onset of inhibition τf” value [1, 4] was 30 ± 2 ms and the “onset of inhibition τs” value [1, 4] was 579 ± 92 ms. For the same molecule, the “recovery from inhibition (offset) τs” value ([1]; 150 μM PA-S, 1 mM glutamate, 10 μM glycine, attached HEK293 cells) was 536 ± 79 ms, the “intercept of linear fit of mean inhibition versus holding potential” value ([1]; PA-S 200 µM, 1 mM glutamate, WT) was 85.2 and the “voltage dependence of steroid inhibition” value ([1]; WT GluN1/GluN2B) was “voltage independent”. For the same molecule, the mode of inhibition ([1]; dependence on receptor activation by agonists) was “use-dependent”, the “time constant of the slow rate of recovery from inhibition” value ([1]; glutamate and steroid co-application for 30 s) was 902 ± 201 ms and the “onset of the response to glutamate application (10–90%)” value ([1]; immediately after 30 s PA-S (150 μM) pre-application in the absence of glutamate) was 18.4 ± 1.6 ms. For the same molecule, the “onset of inhibition As” value [1, 5] was 20 ± 4%, the “onset of inhibition τf” value [1, 5] was 10.8 ± 2.2 ms and the “onset of inhibition τs” value [1, 5] was 480 ± 108 ms. For the same molecule, the “off rate As” value [1, 6] was 65% and 41 ± 6%, the “off rate τf” value [1, 6] was 16 ms and 14.3 ± 1.7 ms and the “off rate τs” value [1, 6] was 367 ms and 311 ± 70 ms. The IC50 [2] was 34 ± 3 µM, the “fast dissociation time constant from the membrane” value [3] was at most 1 ms and the “koff (rate of steroid dissociation from the membrane)” value [3] was at least 1000 s⁻¹. For the same molecule, the “capacitance increase during the steroid application” value ([3]; PA-S 150 μM for 1 s, attached cells) was ~ 3%, the “capacitance return after steroid washout As” value ([3]; PA-S 150 μM, attached cells) was 41 ± 2% and the “capacitance return after steroid washout τf” value ([3]; PA-S 150 μM, attached cells) was under 5 ms. For the same molecule, the “capacitance return after steroid washout τs” value ([3]; PA-S 150 μM, attached cells) was 222 ± 8 ms and 244 ms and the “capacitance change after PA-S washout τ” value ([3]; lifted cells, only fast component resolved) was under 5 ms.
